In patent US10611779B2, “Fused bicyclic heterocycle derivatives as pesticides” (Bayer CropScience Aktiengesellschaft, priority 2016, dated 2020):

How the values were obtained:
Myzus persicae [1] = assay: Myzus persicae - oral test; type: in vivo; conditions: microtitre plate, after 5 days
Method: Myzus persicae—Oral Test [table] To produce a suitable active ingredient formulation, 1 part by weight of active ingredient is dissolved with the stated parts by weight of solvent and made up to the desired concentration with water. 50 μl of the active ingredient preparation are transferred into microtitre plates and made up to a final volume of 200 μl with 150 μl of IPL41 insect medium (33%+15% sugar). Subsequently, the plates are sealed with parafilm, which a mixed population of green peach aphids (Myzus persicae) within a second microtitre plate is able to puncture and imbibe the solution. After 5 days, the efficacy in % is determined. 100% means that all the aphids have been killed; 0% means that no aphids have been killed.

Phaedon cochleariae = Phaedon cochleariae - spray test; type: in vivo; conditions: application rate 100 g/ha; Chinese cabbage leaf discs; after 7 days
Method: Phaedon cochleariae—Spray Test
(§1) To produce a suitable active ingredient formulation, 1 part by weight of active ingredient is dissolved with the specified parts by weight of solvent and made up to the desired concentration with water containing an emulsifier concentration of 1000 ppm. To produce further test concentrations, the formulation is diluted with emulsifier-containing water.
Discs of Chinese cabbage leaves (Brassica pekinensis) are sprayed with an active ingredient formulation of the desired concentration and, after drying, populated with larvae of the mustard beetle (Phaedon cochleariae).
After 7 days, the efficacy in % is determined. 100% means that all the beetle larvae have been killed; 0% means that no beetle larvae have been killed.

Spodoptera frugiperda = Spodoptera frugiperda - spray test; type: in vivo; conditions: application rate 100 g/ha; maize leaf discs; after 7 days
Method: Spodoptera frugiperda—Spray Test [table] To produce a suitable active ingredient formulation, 1 part by weight of active ingredient is dissolved with the specified parts by weight of solvent and made up to the desired concentration with water containing an emulsifier concentration of 1000 ppm. To produce further test concentrations, the formulation is diluted with emulsifier-containing water. Leaf discs of maize (Zea mays) are sprayed with an active ingredient formulation of the desired concentration and, after drying, populated with caterpillars of the armyworm (Spodoptera frugiperda). After 7 days, the efficacy in % is determined. 100% means that all the caterpillars have been killed; 0% means that no caterpillar has been killed.

Lucilia cuprina = Lucilia cuprina test; type: in vivo; conditions: application rate 100 ppm; minced horsemeat; after 2 days
Method: Lucilia cuprina Test Solvent: dimethyl sulfoxide To produce a suitable active ingredient formulation, 10 mg of active ingredient are mixed with 0.5 ml of dimethyl sulfoxide, and the concentrate is diluted with water to the desired concentration. About 20 L1 larvae of the Australian sheep blowfly (Lucilia cuprina) are transferred into a test vessel containing minced horsemeat and the active ingredient formulation of the desired concentration. After 2 days, the kill in % is determined. 100% means that all the larvae have been killed; 0% means that no larvae have been killed.

Ctenocephalides felis [2] = assay: Ctenocephalides felis - oral test; type: in vivo; conditions: application rate 100 ppm; in citrated cattle blood; after 2 days
Method: Ctenocephalides felis—Oral Test Solvent: dimethyl sulfoxide To produce a suitable active ingredient formulation, 10 mg of active ingredient are mixed with 0.5 ml of dimethyl sulfoxide. Dilution with citrated cattle blood gives the desired concentration. About 20 unfed adult cat fleas (Ctenocephalides felis) are placed into a chamber which is closed at the top and bottom with gauze. A metal cylinder whose bottom end is closed with parafilm is placed onto the chamber. The cylinder contains the blood/active ingredient formulation, which can be imbibed by the fleas through the parafilm membrane. After 2 days, the kill in % is determined. 100% means that all of the fleas have been killed; 0% means that none of the fleas have been killed.

Boophilus microplus = Boophilus microplus - injection test; type: in vivo; conditions: application rate 20 μg/animal; injection into engorged adult female ticks; after 7 days
Method: Boophilus microplus—Injection Test Solvent: dimethyl sulfoxide To produce a suitable active ingredient formulation, 10 mg of active ingredient are mixed with 0.5 ml of solvent and the concentrate is diluted to the desired concentration with solvent. 1 μl of the active ingredient solution is injected into the abdomen of 5 engorged adult female cattle ticks (Boophilus microplus). The animals are transferred into dishes and kept in a climate-controlled room. Efficacy is assessed after 7 days by laying of fertile eggs. Eggs which are not visibly fertile are stored in a climate-controlled cabinet until the larvae hatch after about 42 days. An efficacy of 100% means that none of the ticks has laid any fertile eggs; 0% means that all the eggs are fertile.

[3] = log P (neutral) by HPLC on reversed-phase column (EEC Directive 79/831 Annex V.A8); type: physicochemical; conditions: reversed-phase C18 HPLC column, reversed-phase C 18, 55° C., neutral range pH 7.8
Method: The log P values are measured according to EEC Directive 79/831 Annex V.A8 by HPLC (high-performance liquid chromatography) on a reversed-phase column (C 18). Temperature: 55° C. The LC-MS determination in the neutral range is effected at pH 7.8 with 0.001 molar aqueous ammonium hydrogencarbonate solution and acetonitrile as eluents; linear gradient from 10% acetonitrile to 95% acetonitrile. Called log P (neutral) in the table. Calibration is effected using unbranched alkan-2-ones (having 3 to 16 carbon atoms) with known log P values (log P values determined on the basis of the retention times by linear interpolation between two successive alkanones).

Myzus persicae [4] = assay: Myzus persicae - spray test; type: in vivo; conditions: application rate 100 g/ha; Chinese cabbage leaf discs, all stages; after 5 days
Method: Myzus persicae—Spray Test [table] To produce a suitable active ingredient formulation, 1 part by weight of active ingredient is dissolved with the specified parts by weight of solvent and made up to the desired concentration with water containing an emulsifier concentration of 1000 ppm. To produce further test concentrations, the formulation is diluted with emulsifier-containing water. Discs of Chinese cabbage leaves (Brassica pekinensis) infested by all stages of the green peach aphid (Myzus persicae) are sprayed with an active ingredient formulation of the desired concentration. After 5 days, the efficacy in % is determined. 100% means that all the aphids have been killed; 0% means that no aphids have been killed.

Ctenocephalides felis [5] = assay: Ctenocephalides felis - in vitro contact tests with adult cat fleas; type: in vivo; conditions: application rate 5 μg/cm^2 (=500 g/ha), coated glass tube, after 48 h
Method: Ctenocephalides felis—In Vitro Contact Tests with Adult Cat Fleas For the coating of the test tubes, 9 mg of active ingredient are first dissolved in 1 ml of acetone p.a. and then diluted to the desired concentration with acetone p.a. 250 μl of the solution are distributed homogeneously on the inner walls and the base of a 25 ml glass tube by turning and rocking on an orbital shaker (rocking rotation at 30 rpm for 2 h). With 900 ppm of active ingredient solution and internal surface area 44.7 cm^2, given homogeneous distribution, an area-based dose of 5 μg/cm^2 is achieved. After the solvent has evaporated off, the tubes are populated with 5-10 adult cat fleas (Ctenocephalides felis), sealed with a perforated plastic lid and incubated in a horizontal position at room temperature and ambient humidity. After 48 h, efficacy is determined. To this end, the tubes are stood upright and the fleas are knocked to the base of the tube. Fleas which remain motionless at the base or move in an uncoordinated manner are considered to be dead or moribund. […] 100% efficacy means that all the fleas were dead or moribund. 0% efficacy means that no fleas were harmed.

Tetranychus urticae = Tetranychus urticae - spray test, OP-resistant; type: in vivo; conditions: application rate 20 g/ha; bean leaf discs, all stages; after 6 days
Method: Tetranychus urticae—Spray Test, OP-Resistant
as §1
Discs of bean leaves (Phaseolus vulgaris) infested with all stages of the greenhouse red spider mite (Tetranychus urticae) are sprayed with an active ingredient formulation of the desired concentration.
After 6 days, the efficacy in % is determined. 100% means that all the spider mites have been killed; 0% means that no spider mites have been killed.

Musca domestica = Musca domestica test; type: in vivo; conditions: application rate 100 ppm; sponge with sugar solution; after 2 days
Method: Musca domestica Test Solvent: dimethyl sulfoxide To produce a suitable active ingredient formulation, 10 mg of active ingredient are mixed with 0.5 ml of dimethyl sulfoxide, and the concentrate is diluted with water to the desired concentration. Vessels containing a sponge treated with sugar solution and the active ingredient formulation of the desired concentration are populated with 10 adult houseflies (Musca domestica). After 2 days, the kill in % is determined. 100% means that all of the flies have been killed; 0% means that none of the flies have been killed.

| chromatographic logP [3] | Compound | efficacy (aphids killed) (Myzus persicae [1]; application rate 4 ppm) [%] | efficacy (beetle larvae killed) (Phaedon cochleariae) [%] | efficacy (caterpillars killed) (Spodoptera frugiperda) [%] | efficacy (kill of L1 larvae) (Lucilia cuprina) [%] | efficacy (kill of fleas) (Ctenocephalides felis [2]) [%] | efficacy (no laying of fertile eggs) (Boophilus microplus) [%] | efficacy (aphids killed) (Myzus persicae [1]; application rate 20 ppm) [%] | efficacy (aphids killed) (Myzus persicae [4]) [%] | efficacy (fleas dead or moribund) (Ctenocephalides felis [5]) [%] | efficacy (spider mites killed) (Tetranychus urticae) [%] | efficacy (kill of adult houseflies) (Musca domestica) [%] |
| --- | --- | --- | --- | --- | --- | --- | --- | --- | --- | --- | --- | --- |
|  | CCS(=O)(=O)c1c(-c2nc3cc(C(F)(F)F)ncc3n2C)nn2cc(Cl)ccc12 [Example I-5] | 100 | 100 | 100 |  |  |  |  |  |  |  |  |
| 2 | CCS(=O)(=O)c1c(-c2nc3cc(C(F)(F)F)ncc3n2C)nn2c(C)cc(C)nc12 [Example I-3, 3-Ethylsulfonyl-5,7-dimethyl-2-[3-methyl-6-(trifluoromethyl)imidazo[4,5-c]pyridin-2-yl]-pyrazolo[1,5-a]pyrimidine] | 100 |  |  | 97 | 100 | 100 | 100 | 100 |  |  |  |
| 2.26 | CCS(=O)(=O)c1c(-c2nc3cc(C(F)(F)F)ncc3n2C)nn2ccccc12 [Example I-1, 2-(3-Ethylsulfonylpyrazolo[1,5-a]pyridin-2-yl)-3-methyl-6-(trifluoromethyl)imidazo[4,5-c]pyridine] | 100 |  |  | 100 | 100 |  | 100 | 100 | 100 |  |  |
| 1.58 | CCS(=O)(=O)c1c(-c2nc3cc(C(F)(F)F)ncc3n2C)nn2cccnc12 [Example I-2, 2-(3-Ethylsulfonylpyrazolo[1,5-a]pyrimidin-2-yl)-3-methyl-6-(trifluoromethyl)imidazo[4,5-c]-pyridine] | 100 |  |  |  |  |  | 100 | 90 |  | 90 |  |
| 2.86 | Cn1c(-c2nn3ccccc3c2Br)nc2cc(C(F)(F)F)ncc21 [2-(3-Bromopyrazolo[1,5-a]pyridin-2-yl)-3-methyl-6-(trifluoromethyl)imidazo[4,5-c]pyridine] |  |  |  |  |  |  |  |  |  |  |  |
|  | CCS(=O)(=O)c1c(-c2nc3cc(C(F)(F)F)cnc3n2C)nn2ccccc12 [Example I-4] | 100 | 100 | 100 | 100 |  |  |  | 90 | 100 |  | 90 |
|  | CCS(=O)(=O)c1c(-c2nc3cc(C(F)(F)F)cnc3n2C)nn2cc(Cl)ccc12 [Example I-6] | 100 | 100 | 100 |  |  |  |  | 90 |  |  |  |
